Assay [1] has as its target Tyrosine-protein kinase receptor UFO (Homo sapiens) (UniProt P30530). The assay is described as follows: Selectivity interaction (KinomeScan (DiscoverX)) EUB0000229b AXL. The note with it: at 10 µM.
For assay [2], the target named is Serine/threonine-protein kinase mTOR (Homo sapiens, UniProt P42345). The assay is described as follows: Selectivity interaction (KinomeScan (DiscoverX)) EUB0000655a MTOR. Particulars: at 10 µM.
Assay [3] has as its target Calcium/calmodulin-dependent protein kinase kinase 2 (Homo sapiens) (UniProt Q96RR4). As to the kind of experiment: Selectivity interaction (KinomeScan (DiscoverX)) EUB0001079a CAMKK2. The note with it: at 1 µM.
A further assay deals with Insulin receptor (Homo sapiens, UniProt P06213). As to the kind of experiment: Selectivity interaction (KinomeScan (DiscoverX)) EUB0001619a INSR. Particulars: at 1 µM.
Assay [4] concerns the target T1, Dual serine/threonine and tyrosine protein kinase (Homo sapiens) (UniProt Q6XUX3).
T1 sequence (whole entry): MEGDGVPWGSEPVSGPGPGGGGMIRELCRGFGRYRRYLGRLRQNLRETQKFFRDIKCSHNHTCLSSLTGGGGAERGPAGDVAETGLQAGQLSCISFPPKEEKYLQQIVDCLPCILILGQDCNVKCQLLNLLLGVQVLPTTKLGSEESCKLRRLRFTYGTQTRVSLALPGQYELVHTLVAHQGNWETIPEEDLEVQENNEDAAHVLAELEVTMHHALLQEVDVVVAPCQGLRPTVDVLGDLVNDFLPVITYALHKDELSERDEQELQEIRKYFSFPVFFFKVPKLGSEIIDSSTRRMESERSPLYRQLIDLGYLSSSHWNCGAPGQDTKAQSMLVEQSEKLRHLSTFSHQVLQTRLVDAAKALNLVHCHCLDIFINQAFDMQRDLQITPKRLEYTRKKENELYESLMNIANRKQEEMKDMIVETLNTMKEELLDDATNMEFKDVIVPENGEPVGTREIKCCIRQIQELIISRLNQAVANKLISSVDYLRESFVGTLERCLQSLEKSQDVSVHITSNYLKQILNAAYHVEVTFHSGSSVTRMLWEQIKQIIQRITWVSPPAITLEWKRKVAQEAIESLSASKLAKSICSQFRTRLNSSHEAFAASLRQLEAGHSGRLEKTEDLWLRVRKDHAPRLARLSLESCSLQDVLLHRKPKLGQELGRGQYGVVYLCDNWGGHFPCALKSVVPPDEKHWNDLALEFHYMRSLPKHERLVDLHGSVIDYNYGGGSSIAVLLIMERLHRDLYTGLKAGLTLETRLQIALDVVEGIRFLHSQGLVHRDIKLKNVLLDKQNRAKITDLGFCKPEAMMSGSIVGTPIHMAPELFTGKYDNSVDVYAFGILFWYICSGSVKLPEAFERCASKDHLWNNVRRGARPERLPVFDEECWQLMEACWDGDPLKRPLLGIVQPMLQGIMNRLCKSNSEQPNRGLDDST
The assay is described as follows: Selectivity interaction (KinomeScan (DiscoverX)) EUB0001619a DSTYK. Particulars: at 1 µM.

Assay [5] addresses Nuclear receptor subfamily 1 group I member 2 (Homo sapiens, UniProt O75469). As to the kind of experiment: Selectivity interaction (Pregnane X Receptor (PXR, SXR) binding, human recombinant ) EUB0000877a NR1I2.
The target of assay [6] is T2, Dual specificity mitogen-activated protein kinase kinase 4 (Homo sapiens) (UniProt P45985).
T2 sequence (whole entry): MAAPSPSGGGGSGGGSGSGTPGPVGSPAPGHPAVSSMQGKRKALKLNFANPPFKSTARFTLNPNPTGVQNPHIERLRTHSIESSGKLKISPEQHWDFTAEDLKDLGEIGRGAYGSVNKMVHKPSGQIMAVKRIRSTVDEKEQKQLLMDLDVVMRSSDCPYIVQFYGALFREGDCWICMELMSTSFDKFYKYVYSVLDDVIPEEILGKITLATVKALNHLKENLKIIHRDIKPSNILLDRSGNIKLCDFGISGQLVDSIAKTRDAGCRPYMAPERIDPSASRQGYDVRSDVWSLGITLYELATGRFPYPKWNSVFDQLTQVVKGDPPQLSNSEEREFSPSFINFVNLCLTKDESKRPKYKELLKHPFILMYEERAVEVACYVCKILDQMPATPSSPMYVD
The assay is described as follows: Selectivity interaction (ActivX KiNativ screen (kinase selectivity in THP-1 cell lysates)) EUB0000639a MAP2K4. The note with it: lysate, at 1 µM. It is filed as subcellular.

Assay [7] has as its target Dual specificity protein kinase CLK1 (Homo sapiens, UniProt P49759). The assay is described as follows: Selectivity interaction (KinomeScan (DiscoverX)) EUB0001049a CLK1. Particulars: at 1 µM.
Assay [8] addresses T3, Serine/threonine-protein kinase Nek3 (Homo sapiens) (UniProt P51956).
T3 sequence (whole entry): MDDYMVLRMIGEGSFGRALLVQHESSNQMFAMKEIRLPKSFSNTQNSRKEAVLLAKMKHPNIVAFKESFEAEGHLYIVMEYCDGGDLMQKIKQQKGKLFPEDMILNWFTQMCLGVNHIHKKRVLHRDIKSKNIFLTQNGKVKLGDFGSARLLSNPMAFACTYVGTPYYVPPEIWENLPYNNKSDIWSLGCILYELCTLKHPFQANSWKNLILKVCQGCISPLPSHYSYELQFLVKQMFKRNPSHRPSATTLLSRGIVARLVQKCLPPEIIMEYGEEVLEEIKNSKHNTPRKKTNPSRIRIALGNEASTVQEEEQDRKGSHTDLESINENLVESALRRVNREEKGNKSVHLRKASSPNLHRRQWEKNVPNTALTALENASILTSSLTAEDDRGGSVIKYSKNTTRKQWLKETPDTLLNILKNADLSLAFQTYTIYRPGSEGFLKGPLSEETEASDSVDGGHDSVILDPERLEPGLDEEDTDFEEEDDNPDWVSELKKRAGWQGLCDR
The assay is described as follows: Selectivity interaction (KinomeScan (DiscoverX)) EUB0001049a NEK3. The note with it: at 1 µM.

Assay [9] deals with Epidermal growth factor receptor (Homo sapiens), P00533 [UNDEFINED MUTATION]. The assay is described as follows: Selectivity interaction (KinomeScan (DiscoverX)) EUB0000092b EGFR. The note with it: at 10 µM.
Assay [10] has as its target T4, Aurora kinase A (Homo sapiens) (UniProt O14965).
T4 sequence (whole entry): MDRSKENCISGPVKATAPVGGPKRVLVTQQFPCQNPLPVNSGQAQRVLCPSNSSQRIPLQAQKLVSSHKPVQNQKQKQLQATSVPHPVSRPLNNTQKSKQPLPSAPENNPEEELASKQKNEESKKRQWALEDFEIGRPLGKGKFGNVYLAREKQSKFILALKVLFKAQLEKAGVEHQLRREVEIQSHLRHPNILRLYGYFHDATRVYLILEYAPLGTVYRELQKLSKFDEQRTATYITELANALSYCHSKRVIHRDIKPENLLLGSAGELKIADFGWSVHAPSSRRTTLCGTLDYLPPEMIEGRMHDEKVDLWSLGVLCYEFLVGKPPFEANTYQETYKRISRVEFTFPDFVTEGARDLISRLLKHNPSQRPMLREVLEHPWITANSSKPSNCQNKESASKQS
The assay is described as follows: Selectivity interaction (KinomeScan (DiscoverX)) EUB0000618a STK6. The note with it: at 10 µM.

The target of assay [11] is Phosphorylase b kinase gamma catalytic chain, skeletal muscle/heart isoform (Homo sapiens) (UniProt Q16816). As to the kind of experiment: Selectivity interaction (KinomeScan (DiscoverX)) EUB0000595a PHKG1. Particulars: at 10 µM.

Where only a bound is given, the exact number is not on record here.

The values that follow come from ChEMBL document CHEMBL5465560, “Selectivity Literature for EUbOPEN Chemogenomic Library” (2024).

What is called IC50 is the concentration needed to halve the response being measured.

Chain of Insulin receptor (P06213 28-758 limits assumed): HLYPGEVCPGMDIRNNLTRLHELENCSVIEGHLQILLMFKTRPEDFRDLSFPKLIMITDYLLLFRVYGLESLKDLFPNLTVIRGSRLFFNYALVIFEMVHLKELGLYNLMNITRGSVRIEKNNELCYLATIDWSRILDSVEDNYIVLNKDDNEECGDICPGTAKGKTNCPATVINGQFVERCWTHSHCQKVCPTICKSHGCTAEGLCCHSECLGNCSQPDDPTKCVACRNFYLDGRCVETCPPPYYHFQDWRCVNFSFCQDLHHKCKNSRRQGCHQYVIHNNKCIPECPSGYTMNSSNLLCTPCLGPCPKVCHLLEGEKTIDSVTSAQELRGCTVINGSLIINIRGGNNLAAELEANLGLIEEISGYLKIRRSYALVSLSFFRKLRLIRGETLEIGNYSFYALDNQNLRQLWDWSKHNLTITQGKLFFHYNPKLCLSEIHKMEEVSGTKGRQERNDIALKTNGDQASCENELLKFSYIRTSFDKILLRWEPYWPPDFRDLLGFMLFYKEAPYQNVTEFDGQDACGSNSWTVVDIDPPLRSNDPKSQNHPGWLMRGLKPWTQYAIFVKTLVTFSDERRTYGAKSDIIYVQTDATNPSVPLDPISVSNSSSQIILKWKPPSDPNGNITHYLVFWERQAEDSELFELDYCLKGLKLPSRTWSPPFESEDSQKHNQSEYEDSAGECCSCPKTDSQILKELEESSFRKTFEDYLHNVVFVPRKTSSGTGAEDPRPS
Chain of Insulin receptor (P06213 763-1382 limits assumed): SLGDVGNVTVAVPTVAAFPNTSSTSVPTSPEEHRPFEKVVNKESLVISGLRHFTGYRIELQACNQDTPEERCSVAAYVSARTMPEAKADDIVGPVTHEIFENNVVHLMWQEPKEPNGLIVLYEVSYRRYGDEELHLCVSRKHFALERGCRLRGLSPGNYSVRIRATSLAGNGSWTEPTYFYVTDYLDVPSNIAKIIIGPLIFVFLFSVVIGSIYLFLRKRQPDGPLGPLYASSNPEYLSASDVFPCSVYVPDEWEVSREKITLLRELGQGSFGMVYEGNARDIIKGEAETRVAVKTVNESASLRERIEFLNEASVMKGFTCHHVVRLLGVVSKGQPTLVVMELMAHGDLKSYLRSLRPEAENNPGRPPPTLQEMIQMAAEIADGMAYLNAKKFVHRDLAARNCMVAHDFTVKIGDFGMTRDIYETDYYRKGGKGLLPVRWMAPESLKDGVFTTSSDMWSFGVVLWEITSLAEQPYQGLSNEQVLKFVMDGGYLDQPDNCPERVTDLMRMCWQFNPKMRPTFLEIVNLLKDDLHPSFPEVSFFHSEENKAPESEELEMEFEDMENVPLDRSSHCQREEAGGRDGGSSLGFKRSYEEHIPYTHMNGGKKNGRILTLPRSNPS
Chain of Phosphorylase b kinase gamma catalytic chain, skeletal muscle/heart isoform (Homo sapiens) (Q16816 whole entry, looked up, canonical isoform): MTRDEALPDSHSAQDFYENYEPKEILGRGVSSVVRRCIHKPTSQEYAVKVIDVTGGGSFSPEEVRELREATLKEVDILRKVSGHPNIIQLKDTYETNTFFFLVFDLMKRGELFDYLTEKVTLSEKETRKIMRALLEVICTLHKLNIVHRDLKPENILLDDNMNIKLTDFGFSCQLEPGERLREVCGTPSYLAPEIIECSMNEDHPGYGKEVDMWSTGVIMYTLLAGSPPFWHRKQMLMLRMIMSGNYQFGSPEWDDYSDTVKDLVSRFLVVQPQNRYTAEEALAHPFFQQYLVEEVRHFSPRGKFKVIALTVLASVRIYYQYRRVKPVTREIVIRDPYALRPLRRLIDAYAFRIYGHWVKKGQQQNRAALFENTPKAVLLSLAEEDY
Chain of Nuclear receptor subfamily 1 group I member 2 (O75469 whole entry): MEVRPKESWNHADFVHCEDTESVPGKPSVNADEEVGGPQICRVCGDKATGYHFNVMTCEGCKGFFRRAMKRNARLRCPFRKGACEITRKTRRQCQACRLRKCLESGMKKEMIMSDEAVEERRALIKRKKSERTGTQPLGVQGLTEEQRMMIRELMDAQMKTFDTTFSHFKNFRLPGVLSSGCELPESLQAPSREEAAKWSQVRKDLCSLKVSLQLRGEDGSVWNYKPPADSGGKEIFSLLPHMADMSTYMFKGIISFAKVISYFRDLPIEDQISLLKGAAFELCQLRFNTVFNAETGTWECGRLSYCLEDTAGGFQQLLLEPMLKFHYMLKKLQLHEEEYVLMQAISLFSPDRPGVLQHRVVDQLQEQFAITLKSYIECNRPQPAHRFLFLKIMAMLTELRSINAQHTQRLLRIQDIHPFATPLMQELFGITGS
Chain of Dual specificity protein kinase CLK1 (P49759 whole entry, looked up): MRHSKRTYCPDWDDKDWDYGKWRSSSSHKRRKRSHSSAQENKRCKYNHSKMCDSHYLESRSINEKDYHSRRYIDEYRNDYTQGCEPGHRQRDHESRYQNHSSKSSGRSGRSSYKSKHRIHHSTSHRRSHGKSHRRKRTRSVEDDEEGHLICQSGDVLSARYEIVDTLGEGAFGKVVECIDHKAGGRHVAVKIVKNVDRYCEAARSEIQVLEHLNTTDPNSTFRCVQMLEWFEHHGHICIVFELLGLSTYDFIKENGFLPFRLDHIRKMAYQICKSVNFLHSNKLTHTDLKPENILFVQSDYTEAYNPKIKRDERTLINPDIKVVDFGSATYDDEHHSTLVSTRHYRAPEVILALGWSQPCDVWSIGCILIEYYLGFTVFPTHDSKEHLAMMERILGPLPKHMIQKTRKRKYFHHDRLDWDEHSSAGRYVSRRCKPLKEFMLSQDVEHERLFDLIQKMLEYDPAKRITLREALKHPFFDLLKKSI
Chain of Tyrosine-protein kinase receptor UFO (Homo sapiens) (P30530 whole entry): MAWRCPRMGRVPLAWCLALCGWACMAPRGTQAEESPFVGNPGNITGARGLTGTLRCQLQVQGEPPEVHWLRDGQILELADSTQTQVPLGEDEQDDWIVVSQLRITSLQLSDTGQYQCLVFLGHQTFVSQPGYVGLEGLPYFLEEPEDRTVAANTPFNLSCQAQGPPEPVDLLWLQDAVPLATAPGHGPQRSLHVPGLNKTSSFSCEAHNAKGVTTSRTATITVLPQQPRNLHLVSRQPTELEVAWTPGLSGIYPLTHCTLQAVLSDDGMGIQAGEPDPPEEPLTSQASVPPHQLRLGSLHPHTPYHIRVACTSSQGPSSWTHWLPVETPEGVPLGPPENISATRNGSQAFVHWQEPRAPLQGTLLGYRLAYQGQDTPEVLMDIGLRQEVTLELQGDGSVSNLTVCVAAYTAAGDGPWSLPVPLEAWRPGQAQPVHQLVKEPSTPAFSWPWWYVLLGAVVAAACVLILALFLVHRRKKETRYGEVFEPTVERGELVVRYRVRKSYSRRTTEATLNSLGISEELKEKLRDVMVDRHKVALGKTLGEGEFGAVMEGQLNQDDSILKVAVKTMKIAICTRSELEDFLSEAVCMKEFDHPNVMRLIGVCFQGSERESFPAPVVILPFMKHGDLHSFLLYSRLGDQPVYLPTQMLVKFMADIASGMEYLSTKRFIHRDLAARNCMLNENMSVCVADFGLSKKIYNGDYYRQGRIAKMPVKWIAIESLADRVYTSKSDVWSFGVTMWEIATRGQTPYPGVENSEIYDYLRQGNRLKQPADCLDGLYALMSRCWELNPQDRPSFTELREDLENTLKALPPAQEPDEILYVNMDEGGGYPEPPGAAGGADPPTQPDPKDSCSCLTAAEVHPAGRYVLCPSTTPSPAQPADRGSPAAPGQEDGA
Chain of Calcium/calmodulin-dependent protein kinase kinase 2 (Homo sapiens) (Q96RR4 2-588 limits assumed): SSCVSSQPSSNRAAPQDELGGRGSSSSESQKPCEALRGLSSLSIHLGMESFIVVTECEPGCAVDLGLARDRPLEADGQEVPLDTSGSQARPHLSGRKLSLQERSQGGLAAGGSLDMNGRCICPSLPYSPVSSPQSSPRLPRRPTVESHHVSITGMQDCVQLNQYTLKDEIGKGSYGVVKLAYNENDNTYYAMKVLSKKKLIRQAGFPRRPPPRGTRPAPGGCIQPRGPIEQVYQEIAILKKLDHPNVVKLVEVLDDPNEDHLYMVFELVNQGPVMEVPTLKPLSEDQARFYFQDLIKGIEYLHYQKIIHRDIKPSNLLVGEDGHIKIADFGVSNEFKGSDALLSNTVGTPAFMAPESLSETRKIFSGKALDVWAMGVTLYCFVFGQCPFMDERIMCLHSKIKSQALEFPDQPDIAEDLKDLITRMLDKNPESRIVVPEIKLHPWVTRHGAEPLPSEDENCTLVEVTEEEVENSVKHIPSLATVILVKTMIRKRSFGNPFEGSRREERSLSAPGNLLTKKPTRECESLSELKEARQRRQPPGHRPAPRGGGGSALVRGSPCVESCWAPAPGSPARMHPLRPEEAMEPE

`COc1cc(N(C)c2ccnc3ccc(C(F)(F)F)cc23)cc(OC)c1OC`: the % binding in assay [1] was 86%.

As for `CN(C)CCOc1ccc(-c2nc(-c3ccncc3)c(-c3ccc4c(c3)CC/C4=N\O)[nH]2)cc1`, the % of control in assay [2] came out at 75%.

On to `Nc1cnc(N2CCc3cc(S(=O)(=O)Nc4c(F)cc(Cl)cc4F)cc(N4CCCC4=O)c32)nc1` [TP-020n], for which the % of control in assay [3] came out at 100%.

For the molecule `N#Cc1cccc(-c2c[nH]c3ncnc(N4CCOCC4)c23)c1`, the % of control on Insulin receptor turned out to be 100%; in [4], 91%.

Take `CCC(=O)N1CC[C@H](Nc2ncnc3c2CN(c2cnc(OC)c(C(F)(F)F)c2)CC3)C1` [LENIOLISIB]: the concentration for half-maximal inhibition (IC50) in assay [5] was above 30 µM.

The molecule `CC[C@@H]1[C@H](F)C(=O)N[C@@H]1COc1nccc2cc(C(N)=O)c(OC)cc12` [ZIMLOVISERTIB] returned a % of inhibition in [6] of 17.3%.

For `COc1cc(Nc2nc(C)cc(-c3cnn4nc(OC)ccc34)n2)cc(C(F)(F)F)c1`, the % of control was determined as 100% in assay [7] and 92% in assay [8].

The molecule `CCC(=O)N1CCN(c2ccc(-n3c(=O)ccc4cnc5ccc(-c6cnc7ccccc7c6)cc5c43)cc2C(F)(F)F)CC1` yielded a % of control in [9] of 80%.

In assay [10], `O[C@H]1CC[C@H](Nc2ncc3nc(Nc4c(F)cc(F)cc4F)n([C@H]4CCOC4)c3n2)CC1` had a % of control of 91%.

In turn, `COCC(=O)NC/C=C/c1ccc2ncnc(Nc3ccc(Oc4ccc(C)nc4)c(C)c3)c2c1` [CP-724714] yielded a % of control in assay [11] of 100%.
